From patent US20250197428A1, “INHIBITORS OF KIF18A AND USES THEREOF” (ACCENT THERAPEUTICS, INC., priority 2022, published 2025)
pIC50: −log10 of the molar value. Where two headings read alike, the source gives them in different places.

How the values were obtained:
[1] = tested on: OVCAR-3 cells; experiment: In vitro anti-proliferative activity assay in cancer cell line OVCAR-3 (CellTiter-Glo, 4- or 7-day); type: cell-based; conditions: read-out: OVCAR-3 cellular antiproliferation assay IC50
[2] = In vivo pharmacokinetic evaluation in mouse; design: species or system female balb/c nude mice; conditions: for IV Clearance / Vd: 3 mg/kg IV; for Vd / Cmax / half-life: female, balb/c nude, plasma; for Vd: read-out: IV Vss; for Cmax / half-life: 10 mg/kg PO; for half-life: read-out: PO T1/2 (converted)
[3] = Bone marrow concentration in 28 day OVCAR-3 xenograft study; type: in vivo, mice; conditions: NOD SCID, mouse, 30 mg/kg QD oral, 28 day study
Protocol: On Day 28, tissues were collected from animals. About 30-60 μL of whole blood was collected into tubes containing EDTA anticoagulant, and plasma was harvested by centrifugation at 4,000 g×5 min and stored at −80° C. until analysis. Plasma analysis followed the same protocol as for the Day 1 plasma analysis. Additionally, the femurs of the mice were cut and put in pre-weighed tubes. The bone marrow was harvested by centriguation at 8,000 g×15 min. Then, the total weight of both the bone marrow and the tube was recorded. The bone marrow was stored at −80° C. until analysis.
Samples were collected from animals 6 h after the last dose of compound and at 24 h after the last dose of compound.

[4] = molecular target: KIF18A (Homo sapiens (Human), UniProt Q8NI77); experiment: KIF18A Biochemical Assay (ATPase, ADP-Glo)
[5] = Caco-2 permeation assay, bidirectional permeability; type: in vitro ADME; conditions: human, Caco-2, pH 7.4, 5 μM, Papp(B-A)/Papp(A-B)
Protocol: (§1) 1. Caco-2 Permeation Assay: Evaluation of the Bidirectional Permeabilities of Compounds.
(§2) Samples were analyzed through LC/MS/MS for estimating the apparent permeability coefficients (Papp) of compounds across Caco-2 cell monolayers. Caco-2 cells (American Type Culture Collection) were incubated and seeded onto HTS Transwell-96 Well Permeable Supports (Corning Corporation) for 14 days using a cell medium consisting of Dulbecco's Modified Eagle's Medium (DMEM) with high glucose and L-glutamine supplemented with 10% FBS, 1× penicillin-streptomycin mixture and 1×non-essential amino acids (NEAA). Cell monolayer integrity was measured using an automated tissue resistance measuring system (World Precision Instruments). Stock solutions of compounds and control compounds in DMSO were diluted with HBSS (10 mM HEPES, pH 7.4) to reach a final concentration of 5 μM with a final concentration of DMSO <0.1%. HBSS was then removed after 30 minutes of preincubation, and 75 μL of test compound was added to the apical compartment of the Transwell insert. The basolateral compartment was filled with 235 μL of HBSS (10 mM HEPES, pH 7.4) containing 2% BSA. Rate of drug transport in the basolateral to apical direction was obtained by adding 235 μL of test compound to the receiver plate wells (basolateral compartment) and filling with 75 μL of HBSS (10 mM HEPES, pH 7.4) containing 2% BSA. Time 0 samples were prepared by transferring 25 μL of 5 μM working solution to wells of the 96-deepwell plate containing 25 μL HBSS (10 mM HEPES and 2% BSA, pH 7.4), followed by the addition 200 μL of cold methanol containing appropriate internal standards (100 nM alprazolam, 200 nM labetalol, 200 nM caffeine and 200 nM diclofenac). After incubating at 37° C. for 2 h, 25 μL samples from donor sides (apical compartment) were transferred to a 96-well plate containing 25 μL HBSS (10 mM HEPES and 2% BSA, pH 7.4). 25 μL samples from receiver sides (basolateral compartment) were removed and transferred to a new plate containing 25 μL HBSS (10 mM HEPES, pH 7.4). 200 μL of cold methanol containing internal standards (100 nM alprazolam, 200 nM labetalol, 200 nM caffeine and 200 nM diclofenac) was added to terminate the reaction. Samples were vortexed for 5 minutes and then centrifuged at 3,220 g for 40 minutes. An aliquot of 100 μL of the supernatant is mixed with 100 μL of ultra-pure water for LC-MS/MS analysis. All incubations are performed in duplicate. Solutions were discarded from the transwell plate. 100 μL Lucifer Yellow solution (100 μM in HBSS) was added to each well of transwell insert and 300 μL of HBSS to each well of receiver. After incubating at 37° C. for 30 minutes, 80 μL was aliquotted from each well of apical and basolateral sides to a solid black plate. The plate was then read with Tecan Infinite™ M 200 (Excitation/Emission wavelength […]).
(§3) All calculations were carried out using Microsoft Excel. Peak areas were determined from extracted ion chromatograms. The leakage of Lucifer Yellow, in unit of percentage (%), can be calculated using the following equation: […]
(§4) LY leakage of <1% is acceptable to indicate the well-qualified Caco-2 monolayers. The apparent permeability coefficient (Papp), in units of centimeter per second, can be calculated for Caco-2 drug transport assays using the following equation: […]
(§5) Where VA is the volume (in mL) in the receiver well (0.235 mL for Ap→Bl flux and 0.075 mL for Bl→Ap flux), Area is the surface area of the membrane (0.143 cm^2 for HTS Transwell-96 Well Permeable Supports), and time is the total transport time in seconds. The efflux ratio can be determined using the following equation: […]
(§6) Where Papp (B-A) indicates the apparent permeability coefficient in basolateral to apical direction, and Papp (A-B) indicates the apparent permeability coefficient in apical to basolateral direction.
(§7) The recovery can be determined using the following equation: […]

[6] = tested on: human megakaryocyte (CFU-MK) progenitors from human bone marrow mononuclear cells; experiment: Human megakaryocyte progenitor colony formation assay (CFU-MK); type: cell-based; conditions: 336 h, read-out: Free-fraction adjusted CFU-MK IC50
[7] = tested on: OVCAR-3 xenografts; experiment: 28 day in vivo efficacy in OVCAR-3 xenografts; design: species or system female NOD SCID mice; conditions: oral
Protocol: Experiments were performed in female NOD SCID mice (GenPharmatech Co.). Animals were allowed to acclimate for 7 days before the study. The general health of the animals were evaluated by a veterinarian, and complete health checks were performed prior to the study. General procedures for animal care and housing were in accordance with the standard, Commission on Life Sciences, National Research Council, Standard Operating Procedures (SOPs) of Pharmaron, Inc. The mice were kept in laminar flow rooms at constant temperature and humidity with 3-5 mice in each cage. Animals were housed in polycarbonate cages which had dimensions of 300×180×150 mm^3 and in an environmentally monitored, well-ventilated room maintained at a temperature of 23±3° C. and a relative humidity of 40%-70%. Fluorescent lighting provided illumination approximately 12 hours per day. Animals had free access to irradiation sterilized dry granule food during the entire study period except for time periods specified by the protocol, as well as sterile drinking water in a bottle that was available ad libitum during the quarantine and study periods.
The OVCAR-3 (ATCC) tumor cell lines were maintained in vitro as a monolayer in RPMI 1640 medium supplemented with 20% heat inactivated FBS, at 37° C. in an atmosphere of 5% CO2 in air. The tumor cells were sub-cultured, not exceeding 4-5 passages, and cells growing in an exponential growth phase were harvested and counted for tumor inoculation. Each mouse was inoculated subcutaneously on the right flank with OVCAR-3 tumor cells (2×10^7) in 0.2 mL of RPMI-1640 with Matrigel (1:1) for model development.
Treatment was started when the mean tumor size reached approximately 150-200 mm^3, at which time the mice were randomized into treatment groups such that the average starting tumor size is similar for each treatment group. Animals were then treated with vehicle or indicated mg/kg (10-100) of compound at a given frequency (e.g., BID, QD, 4 days on treatment followed by 3 days off treatment) by oral gavage at a final dosing volume of 10 mL/kg.
The measurement of tumor size was conducted with a caliper and recorded twice per […] week. The tumor volume (TV) (mm^3) was estimated using the formula: TV=a×b^2/2, where “a” and “b” are long and short diameters of a tumor, respectively.
The TVs were used for calculation of the tumor growth inhibition and tumor growth delay. For the tumor growth inhibition (TGI), the value using the formula: […]
The “TVfinal” and “TVinitial” are the mean tumor volumes on the final day and initial day, respectively.
All statistical tests was conducted on GraphPad, and the level of significance was set at 5% or P<0.05. The group means and standard deviations were calculated for all measurement parameters. Two-way RM ANOVA followed by Tukeys post hoc comparisons of the means was applied among groups.
Additionally, after compound treatment, the animals were observed an additional 28 days without compound treatment.
The initial treatment period with Example 1 was 28 days, after which overall efficacy and tolerability were evaluated based on tumor volume and body weight changes observed during the treatment period (FIG. 2a and FIG. 2b).
The initial treatment period with Example 1 was 28 days, after which overall efficacy and tolerability were evaluated based on tumor volume and body weight changes observed during the treatment period (FIG. 3a and FIG. 3b).

[8] = Tolerability (body weight) in 28 day OVCAR-3 xenograft study; type: in vivo; conditions: all concentrations dosed, 28 day treatment
[9] = tested on: Caco-2 cell monolayers; experiment: Caco-2 permeation assay, bidirectional permeability; type: in vitro ADME; conditions: 5 μM, 2 h, Papp(B-A)/Papp(A-B)
Protocol: as §1, §2, §3, §4, §5, §6, §7

[10] = Homo sapiens, OVCAR-3, 96 h, 4-day assay
[11] = 14 days culture, adjusted for binding to assay buffer
[12] = day 28, 100 mg/kg once daily for 4 days followed by 3 days of no dosing

Sequence of KIF18A (Q8NI77 1-367): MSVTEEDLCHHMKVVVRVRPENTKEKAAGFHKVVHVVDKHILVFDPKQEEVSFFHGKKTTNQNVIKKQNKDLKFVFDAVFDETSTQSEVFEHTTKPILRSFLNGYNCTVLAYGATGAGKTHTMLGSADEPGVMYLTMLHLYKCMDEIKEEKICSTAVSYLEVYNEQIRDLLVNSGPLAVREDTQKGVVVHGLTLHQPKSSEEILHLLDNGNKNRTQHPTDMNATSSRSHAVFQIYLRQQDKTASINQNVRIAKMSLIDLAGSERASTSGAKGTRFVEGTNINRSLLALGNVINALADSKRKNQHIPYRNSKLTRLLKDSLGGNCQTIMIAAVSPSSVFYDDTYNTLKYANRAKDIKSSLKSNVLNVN
Sequence of KIF18A (P02550 whole entry partner): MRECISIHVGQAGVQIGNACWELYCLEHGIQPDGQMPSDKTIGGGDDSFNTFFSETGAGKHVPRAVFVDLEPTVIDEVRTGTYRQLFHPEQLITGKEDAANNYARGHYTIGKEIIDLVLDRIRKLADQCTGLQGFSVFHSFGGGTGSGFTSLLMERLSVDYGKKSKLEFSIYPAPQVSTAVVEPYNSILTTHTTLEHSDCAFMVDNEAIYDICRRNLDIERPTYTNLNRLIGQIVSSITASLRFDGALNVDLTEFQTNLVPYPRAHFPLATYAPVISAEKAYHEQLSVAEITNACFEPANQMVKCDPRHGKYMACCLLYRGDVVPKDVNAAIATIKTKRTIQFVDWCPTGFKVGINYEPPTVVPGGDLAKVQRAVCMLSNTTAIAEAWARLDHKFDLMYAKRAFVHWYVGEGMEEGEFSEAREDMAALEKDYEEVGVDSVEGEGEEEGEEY
Sequence of KIF18A (P02554 whole entry partner): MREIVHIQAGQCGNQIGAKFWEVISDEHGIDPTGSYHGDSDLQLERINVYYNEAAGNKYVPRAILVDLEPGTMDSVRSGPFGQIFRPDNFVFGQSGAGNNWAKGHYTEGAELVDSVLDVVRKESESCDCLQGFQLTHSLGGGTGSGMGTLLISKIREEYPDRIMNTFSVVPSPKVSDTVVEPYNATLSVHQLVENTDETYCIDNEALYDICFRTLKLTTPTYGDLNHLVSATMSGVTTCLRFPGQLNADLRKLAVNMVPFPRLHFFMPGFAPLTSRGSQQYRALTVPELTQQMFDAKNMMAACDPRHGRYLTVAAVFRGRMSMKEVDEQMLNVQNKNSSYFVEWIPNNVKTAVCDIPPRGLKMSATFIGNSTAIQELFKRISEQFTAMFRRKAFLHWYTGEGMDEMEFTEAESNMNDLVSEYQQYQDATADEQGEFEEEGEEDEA

Cc1cc(NC(=O)c2ccc(NS(=O)(=O)CCO)cc2N2CCC3(CC2)CC3)nc(N2CCC(F)(F)CC2)n1 [Compound A, reference compound]
pIC50 [1, 10]: > 7.00 | IV Clearance [2]: 4.1 mL/ming/kg | Vd [2]: 2 L/kg | concentration at 6 h ([3]; read-out: Bone marrow concentration at 6 h post-last dose): 17000 ng/g | concentration at 24 h ([3]; read-out: Bone marrow concentration at 24 h post-last dose): 4100 ng/g

Cc1cc(NC(=O)c2ccc(NS(=O)(=O)CCO)cc2N2CC[Si](C)(C)CC2)nc(C2CCC(F)(F)CC2)n1 [Example 1, N-(2-(4,4-difluorocyclohexyl)-6-methylpyrimidin-4-yl)-2-(4,4-dimethyl-1,4-azasilinan-1-yl)-4-((2-hydroxyethyl)sulfonamido)benzamide]
pIC50 [4]: > 7.00 | pIC50 [1, 10]: > 7.00 | efflux ratio at 2 h, 5 μM [5]: < 10 | pIC50 [6, 11]: 7.77 | IV Clearance [2]: 3.6 mL/ming/kg | Vd [2]: 2.7 L/kg | Cmax [2]: 2900 ng/mL | half-life [2]: 534 min | % T/C [7, 12]: −2% | % TGI [7, 12]: 102% | Tolerability based on body weight [8]: well tolerated

Cc1cc(NC(=O)c2ccc(NS(=O)(=O)CCO)cc2N2CC[Si](C)(C)CC2)nc(N2CCC(F)(F)CC2)n1 [Example 9, N-[2-(4,4-difluoropiperidin-1-yl)-6-methylpyrimidin-4-yl]-2-(4,4-dimethyl-1,4-azasilinan-1-yl)-4-(2-hydroxyethanesulfonamido)benzamide]
pIC50 [4]: 6.30 to 7.00 | pIC50 [1, 10]: > 7.00 | efflux ratio at 2 h, 5 μM [5]: < 10 | IV Clearance [2]: 1.7 mL/ming/kg | Vd [2]: 2.5 L/kg | Cmax [2]: 3100 ng/mL | half-life [2]: 870 min | % T/C ([7]; day 28, 100 mg/kg once daily): −4% | % TGI ([7]; day 28, 100 mg/kg once daily): 104% | Tolerability based on body weight [8]: well tolerated

C[Si]1(C)CCN(c2cc(NS(=O)(=O)CCO)c(F)cc2C(=O)Nc2cccc(N3CCC(F)(F)CC3)n2)CC1 [Example 14]
pIC50 [4]: > 7.00 | pIC50 [1, 10]: > 7.00 | pIC50 [6]: 7.21

Cc1cc(NC(=O)c2ccc(NS(=O)(=O)CCO)cc2N2CC[C@@]3(C)C[C@H]3C2)nc(N2CCC(F)(F)CC2)n1 [Example 36]
pIC50 [4]: > 7.00 | pIC50 [1, 10]: 6.30 to 7.00 | pIC50 [6, 11]: 7.09

Cc1cc(NC(=O)c2ccc(NS(=O)(=O)CCO)cc2N2CC[C@]3(C(F)F)C[C@@H]3C2)nc(N2CCC(F)(F)CC2)n1 [Example 86]
pIC50 [4]: > 7.00 | pIC50 ([1]; 7-day assay): 6.30 to 7.00 | Caco-2 assay efflux ratio [9]: ** (“**” means efflux ratio of <10)

Cc1cc(NC(=O)c2cc(F)c(NS(=O)(=O)CCO)cc2N2CC[Si](C)(C)CC2)nc(N2CCC(F)(F)CC2)c1 [Example 107]
pIC50 [4]: > 7.00 | pIC50 ([1]; Homo sapiens, OVCAR-3, 168 h, 7-day assay): > 7.00 | efflux ratio at 2 h, 5 μM [5]: < 10 | pIC50 [6, 11]: 7.33
